How the values were obtained:
[1] = target: Proto-oncogene tyrosine-protein kinase Src (Homo sapiens) (UniProt P12931); experiment: Inhibition of human full length SRC expressed in baculovirus assessed as substrate phosphorylation using fluorescence-labelled peptides as substrate at 0.06 uM after 90 mins by microfluidic peptide phosphorylation assay
[2] = target: T1, Serine/threonine-protein kinase 3 (Homo sapiens) (UniProt Q13188); experiment: Inhibition of human full length MST2 expressed in baculovirus assessed as substrate phosphorylation using fluorescence-labelled peptides as substrate at 70 uM after 90 mins by microfluidic peptide phosphorylation assay
T1 sequence (whole entry): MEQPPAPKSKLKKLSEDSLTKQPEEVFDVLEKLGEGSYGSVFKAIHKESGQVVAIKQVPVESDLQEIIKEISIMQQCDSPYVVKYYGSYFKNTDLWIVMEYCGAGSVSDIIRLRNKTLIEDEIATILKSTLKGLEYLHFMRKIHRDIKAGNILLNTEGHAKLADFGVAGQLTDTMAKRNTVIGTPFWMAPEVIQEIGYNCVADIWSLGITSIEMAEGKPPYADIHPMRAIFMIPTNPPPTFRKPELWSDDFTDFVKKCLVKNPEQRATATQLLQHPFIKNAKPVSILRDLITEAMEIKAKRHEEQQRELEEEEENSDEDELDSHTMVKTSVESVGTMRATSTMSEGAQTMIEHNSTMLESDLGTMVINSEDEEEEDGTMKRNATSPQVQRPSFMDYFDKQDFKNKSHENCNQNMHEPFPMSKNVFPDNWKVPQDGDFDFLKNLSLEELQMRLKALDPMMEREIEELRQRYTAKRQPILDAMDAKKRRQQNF

[3] = target: Protein kinase C theta type (Homo sapiens) (UniProt Q04759); experiment: Inhibition of human truncated PKC theta expressed in baculovirus assessed as substrate phosphorylation using fluorescence-labelled peptides as substrate at 0.2 uM after 90 mins by microfluidic peptide phosphorylation assay
Chain of Protein kinase C theta type (Homo sapiens) (Q04759 whole entry, looked up, the tested form may be a part): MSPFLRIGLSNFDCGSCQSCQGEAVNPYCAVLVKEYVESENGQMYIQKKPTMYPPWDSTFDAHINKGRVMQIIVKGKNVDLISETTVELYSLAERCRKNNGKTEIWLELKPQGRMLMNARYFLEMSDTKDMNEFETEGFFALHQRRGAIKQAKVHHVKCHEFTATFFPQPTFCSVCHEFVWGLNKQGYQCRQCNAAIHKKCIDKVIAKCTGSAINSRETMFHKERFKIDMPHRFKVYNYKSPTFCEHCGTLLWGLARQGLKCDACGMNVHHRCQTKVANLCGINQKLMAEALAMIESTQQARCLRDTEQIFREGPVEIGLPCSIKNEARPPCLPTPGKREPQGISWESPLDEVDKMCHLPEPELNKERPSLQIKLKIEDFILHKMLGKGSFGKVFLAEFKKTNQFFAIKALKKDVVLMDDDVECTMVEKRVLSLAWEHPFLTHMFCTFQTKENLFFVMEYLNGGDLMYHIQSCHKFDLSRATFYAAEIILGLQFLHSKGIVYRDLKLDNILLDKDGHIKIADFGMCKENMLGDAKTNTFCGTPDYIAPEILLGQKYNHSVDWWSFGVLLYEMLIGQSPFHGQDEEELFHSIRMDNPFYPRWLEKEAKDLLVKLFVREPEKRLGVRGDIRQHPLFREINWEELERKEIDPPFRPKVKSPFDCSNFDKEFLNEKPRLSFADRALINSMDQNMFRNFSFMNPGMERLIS

[4] = target: T2, Serine/threonine-protein kinase Sgk2 (Homo sapiens) (UniProt Q9HBY8); experiment: Inhibition of human full length SGK2 expressed in baculovirus assessed as substrate phosphorylation using fluorescence-labelled peptides as substrate at 95 uM after 90 mins by microfluidic peptide phosphorylation assay
T2 sequence (whole entry): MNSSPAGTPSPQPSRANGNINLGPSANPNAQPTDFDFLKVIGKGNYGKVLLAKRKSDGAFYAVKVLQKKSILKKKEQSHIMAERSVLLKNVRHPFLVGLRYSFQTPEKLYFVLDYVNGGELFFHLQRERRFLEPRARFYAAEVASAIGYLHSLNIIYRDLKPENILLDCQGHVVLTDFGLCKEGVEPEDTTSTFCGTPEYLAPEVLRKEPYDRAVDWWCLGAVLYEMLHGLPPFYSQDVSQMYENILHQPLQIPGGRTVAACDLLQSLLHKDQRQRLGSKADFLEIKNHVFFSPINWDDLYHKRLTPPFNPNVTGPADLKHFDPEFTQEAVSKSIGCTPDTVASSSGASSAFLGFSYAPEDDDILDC

[5] = target: T3, Testis-specific serine/threonine-protein kinase 2 (Homo sapiens) (UniProt Q96PF2); experiment: Inhibition of human full length TSSK2 expressed in baculovirus assessed as substrate phosphorylation using fluorescence-labelled peptides as substrate at 9 uM after 90 mins by microfluidic peptide phosphorylation assay
T3 sequence (whole entry): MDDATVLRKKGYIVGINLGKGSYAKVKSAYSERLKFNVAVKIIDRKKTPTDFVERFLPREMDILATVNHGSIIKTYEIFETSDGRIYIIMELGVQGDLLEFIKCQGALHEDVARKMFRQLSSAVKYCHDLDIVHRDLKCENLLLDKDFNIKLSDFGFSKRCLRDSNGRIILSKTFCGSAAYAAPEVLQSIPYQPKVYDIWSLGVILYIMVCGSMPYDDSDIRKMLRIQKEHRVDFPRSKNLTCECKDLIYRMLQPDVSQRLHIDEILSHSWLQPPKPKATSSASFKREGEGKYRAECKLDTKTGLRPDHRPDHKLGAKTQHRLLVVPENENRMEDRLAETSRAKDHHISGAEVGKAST

[6] = target: T4, Serine/threonine-protein kinase D3 (Homo sapiens) (UniProt O94806); experiment: Inhibition of human full length PKD3 expressed in baculovirus assessed as substrate phosphorylation using fluorescence-labelled peptides as substrate at 1000 uM after 90 mins by microfluidic peptide phosphorylation assay
T4 sequence (whole entry): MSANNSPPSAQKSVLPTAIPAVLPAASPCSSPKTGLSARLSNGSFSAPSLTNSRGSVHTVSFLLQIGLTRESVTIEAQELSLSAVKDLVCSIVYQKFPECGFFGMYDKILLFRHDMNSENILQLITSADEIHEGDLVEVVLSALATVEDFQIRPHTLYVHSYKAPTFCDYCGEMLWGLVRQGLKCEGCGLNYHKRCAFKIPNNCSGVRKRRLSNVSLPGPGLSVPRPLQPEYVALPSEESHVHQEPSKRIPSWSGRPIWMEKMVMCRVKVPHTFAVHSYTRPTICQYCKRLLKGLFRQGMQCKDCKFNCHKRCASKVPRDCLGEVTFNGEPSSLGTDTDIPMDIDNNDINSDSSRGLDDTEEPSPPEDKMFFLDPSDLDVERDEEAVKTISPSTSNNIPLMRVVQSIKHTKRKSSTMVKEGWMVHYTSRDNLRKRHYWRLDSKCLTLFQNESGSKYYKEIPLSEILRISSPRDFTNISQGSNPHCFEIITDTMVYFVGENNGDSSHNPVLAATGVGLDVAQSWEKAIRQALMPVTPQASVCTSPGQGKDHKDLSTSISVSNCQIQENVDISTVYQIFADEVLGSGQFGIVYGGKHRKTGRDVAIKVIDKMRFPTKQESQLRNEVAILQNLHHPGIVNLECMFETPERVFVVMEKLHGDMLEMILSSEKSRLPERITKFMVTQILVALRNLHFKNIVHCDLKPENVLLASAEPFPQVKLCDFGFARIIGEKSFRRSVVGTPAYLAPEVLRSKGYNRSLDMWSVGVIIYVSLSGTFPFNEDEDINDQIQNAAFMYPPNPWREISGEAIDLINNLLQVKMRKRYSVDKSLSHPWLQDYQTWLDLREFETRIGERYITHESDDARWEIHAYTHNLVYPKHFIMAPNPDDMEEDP

[7] = target: Rho-associated protein kinase 2 (Homo sapiens) (UniProt O75116); experiment: Inhibition of human ROCK2 catalytic domain expressed in baculovirus assessed as substrate phosphorylation using fluorescence-labelled peptides as substrate at 1000 uM after 90 mins by microfluidic peptide phosphorylation assay
Chain of Rho-associated protein kinase 2 (Homo sapiens) (O75116 whole entry, looked up, the tested form may be a part): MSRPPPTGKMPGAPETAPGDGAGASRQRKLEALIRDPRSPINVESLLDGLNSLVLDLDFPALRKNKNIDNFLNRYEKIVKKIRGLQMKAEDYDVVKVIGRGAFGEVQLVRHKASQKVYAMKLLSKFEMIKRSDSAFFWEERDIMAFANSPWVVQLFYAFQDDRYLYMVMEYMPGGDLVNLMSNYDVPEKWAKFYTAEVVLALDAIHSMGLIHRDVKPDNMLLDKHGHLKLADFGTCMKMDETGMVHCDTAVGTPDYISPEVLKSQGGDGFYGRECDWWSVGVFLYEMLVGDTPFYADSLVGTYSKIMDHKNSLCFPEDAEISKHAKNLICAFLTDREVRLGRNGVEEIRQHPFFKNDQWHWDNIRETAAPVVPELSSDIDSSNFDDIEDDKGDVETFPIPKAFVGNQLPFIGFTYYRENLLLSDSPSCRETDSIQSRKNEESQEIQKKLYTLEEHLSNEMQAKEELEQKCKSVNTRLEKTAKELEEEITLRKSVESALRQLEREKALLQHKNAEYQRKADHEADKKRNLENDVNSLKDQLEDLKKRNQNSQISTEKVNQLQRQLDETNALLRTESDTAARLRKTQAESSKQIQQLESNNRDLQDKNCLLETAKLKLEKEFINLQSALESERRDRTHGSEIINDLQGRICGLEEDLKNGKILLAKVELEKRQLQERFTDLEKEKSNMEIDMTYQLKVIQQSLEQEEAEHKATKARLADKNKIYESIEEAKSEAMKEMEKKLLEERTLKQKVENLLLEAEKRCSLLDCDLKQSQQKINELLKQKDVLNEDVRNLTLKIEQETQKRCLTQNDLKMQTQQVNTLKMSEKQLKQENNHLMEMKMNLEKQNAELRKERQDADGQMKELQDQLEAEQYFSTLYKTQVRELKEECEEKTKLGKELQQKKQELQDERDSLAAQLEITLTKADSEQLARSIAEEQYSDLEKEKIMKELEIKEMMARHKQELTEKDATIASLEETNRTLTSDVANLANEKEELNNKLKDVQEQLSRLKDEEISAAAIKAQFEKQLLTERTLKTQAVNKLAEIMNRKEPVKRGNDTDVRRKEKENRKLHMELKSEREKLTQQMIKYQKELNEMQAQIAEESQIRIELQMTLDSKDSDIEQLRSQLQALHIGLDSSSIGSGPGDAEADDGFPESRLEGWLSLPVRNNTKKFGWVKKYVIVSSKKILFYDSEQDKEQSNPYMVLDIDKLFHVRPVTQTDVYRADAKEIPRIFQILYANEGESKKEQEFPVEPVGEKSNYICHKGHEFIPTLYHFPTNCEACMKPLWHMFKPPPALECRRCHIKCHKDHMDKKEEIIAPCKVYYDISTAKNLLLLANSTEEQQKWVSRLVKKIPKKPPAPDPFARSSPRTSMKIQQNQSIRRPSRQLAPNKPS

[8] = target: Protein kinase C theta type (Homo sapiens) (UniProt Q04759); experiment: Inhibition of human truncated PKC theta expressed in baculovirus assessed as substrate phosphorylation using fluorescence-labelled peptides as substrate at 1000 uM after 90 mins by microfluidic peptide phosphorylation assay
Homo sapiens = species: Homo sapiens; conditions: 0.1 uM
Description: Inhibition of human P70S6K catalytic domain expressed in baculovirus assessed as substrate phosphorylation using fluorescence-labelled peptides as substrate at 0.1 uM after 90 mins by microfluidic peptide phosphorylation assay

[9] = tested on: Fibroblast growth factor receptor 2 (Homo sapiens), P21802 [N549H]; experiment: Inhibition of human FGFR2 N549H mutant catalytic domain expressed in baculovirus assessed as substrate phosphorylation using fluorescence-labelled peptides as substrate at 0.1 uM after 90 mins by microfluidic peptide phosphorylation assay
Chain of Fibroblast growth factor receptor 2 (Homo sapiens), P21802 [N549H] (P21802 whole entry N549H, the tested form may be a part): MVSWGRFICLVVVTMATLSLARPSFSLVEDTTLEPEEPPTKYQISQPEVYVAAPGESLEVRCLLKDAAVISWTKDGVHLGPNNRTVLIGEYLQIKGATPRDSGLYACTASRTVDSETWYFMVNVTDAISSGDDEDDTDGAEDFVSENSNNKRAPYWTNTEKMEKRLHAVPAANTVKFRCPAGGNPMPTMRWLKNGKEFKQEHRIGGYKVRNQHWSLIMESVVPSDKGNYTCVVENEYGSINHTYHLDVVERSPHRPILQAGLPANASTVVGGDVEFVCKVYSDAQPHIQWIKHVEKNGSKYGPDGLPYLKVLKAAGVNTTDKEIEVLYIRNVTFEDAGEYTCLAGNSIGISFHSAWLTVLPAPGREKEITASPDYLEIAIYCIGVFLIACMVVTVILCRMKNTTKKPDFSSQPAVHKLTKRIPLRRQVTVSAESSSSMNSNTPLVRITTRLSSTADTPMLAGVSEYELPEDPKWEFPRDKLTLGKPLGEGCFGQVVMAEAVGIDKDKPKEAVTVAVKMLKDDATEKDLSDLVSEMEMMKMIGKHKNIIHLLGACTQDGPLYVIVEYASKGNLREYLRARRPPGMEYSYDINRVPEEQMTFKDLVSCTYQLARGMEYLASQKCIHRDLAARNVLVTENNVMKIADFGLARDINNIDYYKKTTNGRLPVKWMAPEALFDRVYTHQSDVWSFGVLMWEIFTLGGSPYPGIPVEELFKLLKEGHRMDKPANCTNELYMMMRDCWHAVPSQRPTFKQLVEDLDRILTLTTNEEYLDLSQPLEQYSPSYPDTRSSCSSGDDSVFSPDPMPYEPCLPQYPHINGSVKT

Chain of Proto-oncogene tyrosine-protein kinase Src (Homo sapiens) (P12931 2-536 limits assumed): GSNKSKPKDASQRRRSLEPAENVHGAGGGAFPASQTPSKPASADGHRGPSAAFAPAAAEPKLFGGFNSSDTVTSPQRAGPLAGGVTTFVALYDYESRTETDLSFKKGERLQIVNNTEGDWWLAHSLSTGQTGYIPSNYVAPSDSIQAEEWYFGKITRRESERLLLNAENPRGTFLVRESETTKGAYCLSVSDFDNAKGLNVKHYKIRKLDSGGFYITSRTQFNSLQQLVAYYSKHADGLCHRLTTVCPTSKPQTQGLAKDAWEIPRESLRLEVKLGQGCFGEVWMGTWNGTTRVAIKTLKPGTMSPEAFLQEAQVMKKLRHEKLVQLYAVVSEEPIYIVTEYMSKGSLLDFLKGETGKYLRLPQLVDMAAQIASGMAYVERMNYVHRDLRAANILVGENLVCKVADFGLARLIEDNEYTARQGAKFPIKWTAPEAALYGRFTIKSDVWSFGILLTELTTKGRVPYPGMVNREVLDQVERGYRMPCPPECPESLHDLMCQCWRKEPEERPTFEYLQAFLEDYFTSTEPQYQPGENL

Question: Which inhibition [1] does the source give for `NC1(Cc2ccc(Cl)cc2)CCN(c2ncnc3[nH]ccc23)CC1` here?
Answer: 0%

Question: Which inhibition [2] does the source give for `CNCc1ccc(-c2ncnc3[nH]cnc23)cc1` here?
Answer: 88%

Question: For `Clc1ccc(C2(c3ccc(-c4ncnc5[nH]cnc45)cc3)CCNCC2)cc1`, which inhibition [3] is on record?
Answer: 31.5%

Question: `NCCc1ccc(-c2ncnc3[nH]cnc23)cc1` was tested. Which inhibition [4] did it give?
Answer: 50.5%

Question: For `NCC1CN(c2ncnc3[nH]c4cnccc4c23)CCO1` (stereo not given), which inhibition [5] is on record?
Answer: 0%

Question: How did the inhibition [6] turn out when `c1cnc2[nH]ccc2c1` was run?
Answer: 62.5%

Question: What about the inhibition [7] of the same compound?
Answer: 99.5%

Question: And the inhibition [8]?
Answer: 29%

Question: Which results are given for `C[C@H](CN(C)C)Oc1nc(Nc2cc3cccc(Cl)c3cn2)cnc1C#N`?
Answer: inhibition (Homo sapiens): 0%; inhibition [9]: 7.5%
